{"source": "patent US6013632A", "about": "“Compounds and their combinations for the treatment of influenza infection” (Emory University, priority 1998, dated 2000)", "key": {"[1]": {"tested_on": "Influenza A/WSN strain", "assay": "Virus production by HA titer in influenza-infected MDCK cells", "format": "cell-based", "details": "for Decreased virus production (HA titer): 48 hours post infection; for inhibition at 10000 µM / inhibition at 30000 µM: Influenza A virus, WSN"}, "[2]": {"tested_on": "Influenza A/WSN strain", "assay": "Plaque-forming units in supernatant of infected MDCK cells", "format": "cell-based", "details": "10 mM, 48 h", "experimental": "MDCK cells were cultured in 100 mm dishes until 80% confluent. Cells were washed with phosphate-buffered saline and inoculated with Influenza A/WSN strain at a multiplicity of infection of 0.05-0.1 plaque-forming units/cell in serum-free DMEM medium for 2 hours. […] At 48 hours post infection, 100 μl supernatant from each dish was assayed for virus HA titer or plaque-forming units."}, "[3]": {"tested_on": "MDCK cells", "details": "10 mM", "experimental": "GSH was measured in MDCK cells after infection with influenza virus either without or with 10 mM GSH."}, "[4]": {"tested_on": "MDCK cells"}, "[5]": {"tested_on": "Influenza A/WSN strain", "details": "30 mM, normal human SAEC, cultured up to 72 h", "protocol": "SAEC were cultured until 70% confluent. Cells were washed and inoculated with influenza A/WSN strain for 2 h. After washing to remove non-adherent virus, cells were cultured for up to 72 h in medium without or with GSH and assayed for virus production by HA titer."}, "[6]": {"tested_on": "Influenza A/WSN strain", "details": "normal human SAEC, plaque forming assay"}, "[7]": {"tested_on": "influenza virus"}, "[8]": {"tested_on": "MDCK cells", "remark": "listed apart in the source"}, "[9]": {"tested_on": "viral proteins", "details": "35S-methionine labeling after virus infection, without or with added compound", "protocol": "To determine whether GSH altered viral protein synthesis and processing, cells were incubated with ^35 S-methionine to label newly synthesized proteins following virus infection either without or with added GSH. Cells were washed and lysed in SDS-PAGE buffer."}, "[10]": {"tested_on": "MDCK cells", "assay": "Toxicity to MDCK cells at the tested concentrations", "details": "10 mM and 30 mM"}}, "data": [{"molecule": "Ascorbate-2-phosphate", "values": [{"measurement": "Inhibition of virus production (HA titer)", "setting": "[1]; 10 mM, 48 h post infection", "result": 37, "unit": "%"}, {"measurement": "Protection against virus titer and infectious particle production", "setting": "[1]; 10 or 30 mM", "result": "provided protection"}, {"measurement": "Inhibition of plaque-forming units", "setting": "[2]", "result": 50, "unit": "%"}]}, {"molecule": "N[C@@H](CCC(=O)N[C@@H](CS)C(=O)NCC(=O)O)C(=O)O", "note": "[GSH, gamma-L-Glu-L-Cys-Gly]", "values": [{"measurement": "Decreased virus production (HA titer)", "setting": "[1]; 1 mM", "result": 30, "unit": "%"}, {"measurement": "Decreased virus production (HA titer)", "setting": "[1]; 5 mM", "result": 60, "unit": "%"}, {"measurement": "Inhibition of virus production (HA titer)", "setting": "[1]; 10 mM, 48 h post infection", "result": 56, "unit": "%"}, {"measurement": "Inhibition of virus production (HA titer)", "setting": "[1]; 30 mM, 48 h post infection", "result": 90, "unit": "%"}, {"measurement": "Effect on cellular GSH", "setting": "[3]; MDCK cells, absence of virus", "result": "did not increase cellular GSH"}, {"measurement": "Effect on loss of cellular GSH", "setting": "[3]; virus-infected MDCK cells", "result": "did not prevent the loss of GSH"}, {"measurement": "Toxicity to the cells", "setting": "[4]", "result": "not toxic"}, {"measurement": "Decrease of virus production (HA titer)", "setting": "[5]", "result": "greater than 90%"}, {"measurement": "Confirmation of decreased virus production by number of infectious particles", "setting": "[6]", "result": "confirmed"}, {"measurement": "Decrease in virus production", "setting": "[7]; 10-30 mM co-incubated with virus and MDCK cells for 2 h, washed, then 48 h", "result": "no decrease"}, {"measurement": "Decrease of HA titer", "setting": "[7]; added after incubation of cells with virus, 48 h, MDCK cells", "result": 85, "unit": "%"}, {"measurement": "Effect on virus production after 48 h", "setting": "[7]; virus incubated 1 h with up to 30 mM before incubation with MDCK cells", "result": "no effect"}, {"measurement": "Apoptosis caused by the compound alone", "setting": "[8]; no virus", "result": "did not cause apoptosis"}, {"measurement": "Effect on apoptosis of virus infected cells", "setting": "[8]; up to 30 mM, 48 h", "result": "unaffected"}, {"measurement": "Patterns or amounts of labeled viral proteins", "setting": "[9]", "result": "no detectable differences"}]}, {"molecule": "CC(=O)N[C@@H](CS)C(=O)O", "note": "[NAC, N-Acetyl-L-cysteine, reference compound]", "values": [{"measurement": "inhibition at 10000 µM", "setting": "[1]; 10 mM, 24 h", "result": 50, "unit": "%"}, {"measurement": "inhibition at 10000 µM", "setting": "[1]; 10 mM, 48 h post infection", "result": 62, "unit": "%"}, {"measurement": "inhibition at 30000 µM", "setting": "[1]; 30 mM, 24 h", "result": 75, "unit": "%"}, {"measurement": "inhibition at 30000 µM", "setting": "[1]; 30 mM, 48 h post infection", "result": 95, "unit": "%"}, {"measurement": "Toxicity to cells", "setting": "[10]", "result": "not toxic"}]}]}
